Each block holds one molecule with its values, some of them ahead of it.
Experiments:
[1] = molecular target: T1, Aurora kinase A (Homo sapiens) (UniProt O14965); assay: Inhibition of Aurora A kinase at 10 uM
T1 sequence (whole entry): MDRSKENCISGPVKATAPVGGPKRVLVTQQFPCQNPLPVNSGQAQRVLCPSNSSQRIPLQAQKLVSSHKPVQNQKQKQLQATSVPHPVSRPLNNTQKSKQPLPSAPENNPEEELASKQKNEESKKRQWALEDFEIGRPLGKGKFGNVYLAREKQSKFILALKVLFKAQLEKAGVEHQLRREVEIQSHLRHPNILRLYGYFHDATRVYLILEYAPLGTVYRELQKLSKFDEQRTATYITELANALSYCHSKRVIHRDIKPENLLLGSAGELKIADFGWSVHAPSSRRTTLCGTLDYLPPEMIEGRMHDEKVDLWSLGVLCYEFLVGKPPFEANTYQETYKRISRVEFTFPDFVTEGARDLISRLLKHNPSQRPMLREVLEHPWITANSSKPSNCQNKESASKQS

[2] = molecular target: T1, Aurora kinase A (Homo sapiens); assay: Inhibition of Aurora A kinase at 50 uM
Aurora kinase A = molecular target: T2, Aurora kinase A (Homo sapiens, UniProt O14965); assay: Inhibition of Aurora A kinase
T2 sequence (O14965 whole entry): T1 sequence (whole entry)

Aurora kinase C = molecular target: T3, Aurora kinase C (Homo sapiens, UniProt Q9UQB9); assay: Inhibition of Aurora C kinase
T3 sequence (Q9UQB9 whole entry): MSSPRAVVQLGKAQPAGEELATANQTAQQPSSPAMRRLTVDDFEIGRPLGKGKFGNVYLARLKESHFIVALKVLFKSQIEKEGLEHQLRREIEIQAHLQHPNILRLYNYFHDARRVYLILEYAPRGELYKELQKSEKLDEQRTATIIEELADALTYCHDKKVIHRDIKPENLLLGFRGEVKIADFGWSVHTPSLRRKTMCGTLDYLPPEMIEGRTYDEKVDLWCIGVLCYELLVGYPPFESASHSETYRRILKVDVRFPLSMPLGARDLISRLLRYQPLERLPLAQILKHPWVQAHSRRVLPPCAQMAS

Compound: COc1ccc(CN2Cc3c([nH]c4cc(-c5ccco5)nn4c3=O)C2=O)cc1OC
- inhibition [1]: 7.8%
- inhibition [2]: 70.8%

Compound: O=C1c2nc3cc(-c4ccco4)nn3c(O)c2CN1Cc1ccccc1
- inhibition [1]: 35.6%
- IC50 (Aurora kinase A): 15.1 µM
- inhibition [2]: 90.2%

Compound: O=C1c2[nH]c3cc(-c4ccco4)nn3c(=O)c2CN1c1ccccc1
- inhibition [1]: 7.6%
- inhibition [2]: 73.7%

Compound: O=C1c2nc3cc(-c4ccccc4)nn3c(O)c2CN1Cc1ccccc1
- inhibition [1]: 25.9%
- inhibition [2]: 47.2%

Compound: CO[C@@H](C(=O)N1Cc2n[nH]c(NC(=O)c3ccc(N4CCN(C)CC4)cc3)c2C1)c1ccccc1 [DANUSERTIB]
- Ki (Aurora kinase C): 0.061 µM

Compound: O=C1c2c(c(=O)n3nc(-c4ccco4)cc3n2CCN2CCOCC2)CN1Cc1ccccc1
- inhibition [1]: 0%
- inhibition [2]: 1.1%

Compound: O=C1c2[nH]c3cc(-c4ccco4)nn3c(=O)c2CN1Cc1cccc2ccccc12
- inhibition [1]: 30.4%
- inhibition [2]: 79.9%

Compound: O=C1c2[nH]c3cc(-c4ccco4)nn3c(=O)c2CN1Cc1ccc2c(c1)OCO2
- inhibition [1]: 12.3%
- inhibition [2]: 75.2%

Compound: O=C1c2[nH]c3cc(-c4ccco4)nn3c(=O)c2CN1CCN1CCOCC1
- inhibition [1]: 0.9%
- inhibition [2]: 10.7%

Compound: COc1cc(CN2Cc3c([nH]c4cc(-c5ccco5)nn4c3=O)C2=O)cc(OC)c1
- inhibition [1]: 10.1%
- inhibition [2]: 75.3%

The next lines start with the values.

- inhibition [1]: 2.3%
- inhibition [2]: 3.4%
Compound: Cn1c2c(c(=O)n3nc(-c4ccco4)cc13)CN(Cc1ccccc1)C2=O

- inhibition [1]: 51.6%
- IC50 (Aurora kinase A): 5.6 µM
- inhibition [2]: 95.1%
Compound: COc1ccccc1CN1Cc2c([nH]c3cc(-c4ccco4)nn3c2=O)C1=O

- inhibition [1]: 16.4%
- inhibition [2]: 84.4%
Compound: O=C1c2[nH]c3cc(-c4ccco4)nn3c(=O)c2CN1CCCc1ccccc1

- inhibition [1]: 29.4%
- inhibition [2]: 72.3%
Compound: O=C1c2[nH]c3cc(-c4cccs4)nn3c(=O)c2CN1Cc1ccccc1

- inhibition [1]: 29.3%
- IC50 (Aurora kinase A): 15.2 µM
- inhibition [2]: 90%
Compound: COc1cccc(CN2Cc3c([nH]c4cc(-c5ccco5)nn4c3=O)C2=O)c1

- inhibition [1]: 1.8%
- inhibition [2]: 20.8%
Compound: Cc1cc2[nH]c3c(c(=O)n2n1)CN(Cc1ccccc1)C3=O

- inhibition [1]: 19.6%
- inhibition [2]: 83.9%
Compound: O=C1c2[nH]c3cc(-c4ccco4)nn3c(=O)c2CN1CCc1ccccc1

- inhibition [1]: 1.6%
- inhibition [2]: 14.5%
Compound: O=C1c2[nH]c3ccnn3c(=O)c2CN1Cc1ccccc1

- inhibition [1]: 21.6%
- inhibition [2]: 79.2%
Compound: O=C1c2[nH]c3cc(-c4ccco4)nn3c(=O)c2CN1Cc1ccccn1

- inhibition [1]: 24%
- inhibition [2]: 89.8%
Compound: O=C1c2[nH]c3cc(-c4ccco4)nn3c(=O)c2CN1Cc1ccc(F)cc1

- inhibition [1]: 42.4%
- IC50 (Aurora kinase A): 8 µM
- inhibition [2]: 88.2%
Compound: COc1ccc(CN2Cc3c([nH]c4cc(-c5ccco5)nn4c3=O)C2=O)cc1

- inhibition [1]: 35.8%
- IC50 (Aurora kinase A): 18.3 µM
- inhibition [2]: 87.8%
Compound: CC(=O)Nc1cccc(CN2Cc3c([nH]c4cc(-c5ccco5)nn4c3=O)C2=O)c1
